Data taken from ChEMBL document CHEMBL1201861, “Genomics of Drug Sensitity in Cancer screening data, Wellcome Trust Sanger Institute”.

How the values were obtained:
[1] = test system: RPMI 8402; assay: SANGER: Inhibition of human RPMI-8402 cell growth in a cell viability assay.; assay type: functional, cell-based
[2] = test system: EVSA-T; assay: cells; assay type: functional, cell-based, Homo sapiens; conditions: Homo sapiens, EVSA-T;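 further: growth inhibition of EVSA-T cells, read out with a cell viability assay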
Description: SANGER: Inhibition of human EVSA-T cell growth in a cell viability assay.

[3] = test system: EW-12; assay: SANGER: Inhibition of human EW-12 cell growth in a cell viability assay.; assay type: functional, cell-based
[4] = test system: MRK-nu-1; assay: cells; assay type: functional, cell-based; conditions: Homo sapiens;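 further: cell viability assay measuring growth suppression of human MRK-nu-1 cells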
Description: SANGER: Inhibition of human MRK-nu-1 cell growth in a cell viability assay.

[5] = test system: CMK; assay: cells; assay type: functional, cell-based; conditions: Homo sapiens;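 further: growth inhibition of CMK cells, read out as cell viability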
Description: SANGER: Inhibition of human CMK cell growth in a cell viability assay.

[6] = test system: NCI-H128; assay: SANGER: Inhibition of human NCI-H128 cell growth in a cell viability assay.; assay type: functional, cell-based
[7] = test system: LOUCY; assay: cells; assay type: functional, cell-based; conditions: Homo sapiens;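 further: growth inhibition of human LOUCY cells, read out with a cell viability assay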
Description: SANGER: Inhibition of human LOUCY cell growth in a cell viability assay.

[8] = test system: JIYOYE; assay: cells; assay type: functional, cell-based; conditions: Homo sapiens
Description: SANGER: Inhibition of human JiyoyeP-2003 cell growth in a cell viability assay.

[9] = test system: Kasumi 1; assay: cells; assay type: functional, cell-based; conditions: Homo sapiens;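 further: growth inhibition of human Kasumi-1 cells, read out by a cell viability assay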
Description: SANGER: Inhibition of human KASUMI-1 cell growth in a cell viability assay.

[10] = test system: PF-382; assay: cells; assay type: functional, cell-based; conditions: Homo sapiens
Description: SANGER: Inhibition of human PF-382 cell growth in a cell viability assay.

[11] = test system: CA46; assay: cells; assay type: functional, cell-based; conditions: Homo sapiens;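 further: growth inhibition of human CA46 cells, read out by a cell viability assay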
Description: SANGER: Inhibition of human CA46 cell growth in a cell viability assay.

[12] = test system: WSU-NHL; assay: cells; assay type: functional, cell-based; conditions: Homo sapiens;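 further: growth inhibition of human WSU-NHL cells, read out with a cell viability assay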
Description: SANGER: Inhibition of human WSU-NHL cell growth in a cell viability assay.

[13] = test system: NCI-H524; assay: cells; assay type: functional, cell-based; conditions: Homo sapiens;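 further: growth inhibition of human NCI-H524 cells, read out through a cell viability assay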
Description: SANGER: Inhibition of human NCI-H524 cell growth in a cell viability assay.

[14] = test system: CESS; assay: SANGER: Inhibition of human CESS cell growth in a cell viability assay.; assay type: functional, cell-based
[15] = test system: SIG-M5; assay: cells; assay type: functional, cell-based; conditions: Homo sapiens;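 further: cell viability assay read-out, measuring how strongly growth of cultured human SIG-M5 cells is inhibited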
Description: SANGER: Inhibition of human SIG-M5 cell growth in a cell viability assay.

[16] = test system: MHH-CALL-2; assay: cells; assay type: functional, cell-based; conditions: Homo sapiens;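 further: growth inhibition of the cell line, read out in a cell viability assay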
Description: SANGER: Inhibition of human MHH-CALL-2 cell growth in a cell viability assay.

[17] = test system: SNU-16; assay: cells; assay type: functional, cell-based; conditions: Homo sapiens;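 further: growth inhibition of human SNU-16 cells, determined with a cell viability readout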
Description: SANGER: Inhibition of human NCI-SNU-16 cell growth in a cell viability assay.

[18] = test system: SNU-C1; assay: cells; assay type: functional, cell-based; conditions: Homo sapiens;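 further: growth inhibition of SNU-C1 human cells, read out by a cell viability assay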
Description: SANGER: Inhibition of human SNU-C1 cell growth in a cell viability assay.

[19] = test system: Raji; assay: cells; assay type: functional, cell-based; conditions: Homo sapiens;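 further: cell viability assay measuring inhibition of Raji cell growth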
Description: SANGER: Inhibition of human Raji cell growth in a cell viability assay.

[20] = test system: ECC12; assay: cells; assay type: functional, cell-based; conditions: Homo sapiens
Description: SANGER: Inhibition of human ECC12 cell growth in a cell viability assay.

[21] = test system: NCI-H2081; assay: cells; assay type: functional, cell-based; conditions: Homo sapiens;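 further: growth inhibition of human NCI-H2081 cells, read out with a cell viability assay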
Description: SANGER: Inhibition of human NCI-H2081 cell growth in a cell viability assay.

[22] = test system: NB1; assay: cells; assay type: functional, cell-based; conditions: Homo sapiens;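 further: reduction of NB1 cell proliferation, read out with a viability assay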
Description: SANGER: Inhibition of human NB1 cell growth in a cell viability assay.

[23] = test system: NCI-H1522; assay: cells; assay type: functional, cell-based; conditions: Homo sapiens;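 further: growth inhibition of NCI-H1522 cells, read out with a cell viability assay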
Description: SANGER: Inhibition of human NCI-H1522 cell growth in a cell viability assay.

[24] = test system: CHP-126; assay: cells; assay type: functional, cell-based; conditions: Homo sapiens
Description: SANGER: Inhibition of human CHP-126 cell growth in a cell viability assay.

[25] = test system: SCC-3; assay: cells; assay type: functional, cell-based; conditions: Homo sapiens;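 further: cell viability assay measuring inhibition of SCC-3 cell growth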
Description: SANGER: Inhibition of human SCC-3 cell growth in a cell viability assay.

[26] = test system: SU-DHL-1; assay: SANGER: Inhibition of human SU-DHL-1 cell growth in a cell viability assay.; assay type: functional, cell-based
[27] = test system: TE-15; assay: cells; assay type: functional, cell-based; conditions: Homo sapiens;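 further: cell viability readout of growth inhibition in TE-15 cells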
Description: SANGER: Inhibition of human TE-15 cell growth in a cell viability assay.

[28] = test system: EW-22; assay: cells; assay type: functional, cell-based; conditions: Homo sapiens;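 further: growth inhibition of the EW-22 cell line, measured with a cell viability readout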
Description: SANGER: Inhibition of human EW-22 cell growth in a cell viability assay.

[29] = test system: BOKU; assay: cells; assay type: functional, cell-based; conditions: Homo sapiens;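 further: growth inhibition of the human BOKU cell line, read out by a cell viability assay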
Description: SANGER: Inhibition of human BOKU cell growth in a cell viability assay.

| Compound | IC50 [1] [µM] | IC50 [2] [µM] | IC50 [3] [µM] | IC50 [4] [µM] | IC50 [5] [µM] | IC50 [6] [µM] | IC50 [7] [µM] | IC50 [8] [µM] | IC50 [9] [µM] | IC50 [10] [µM] | IC50 [11] [µM] | IC50 [12] [µM] | IC50 [13] [µM] | IC50 [14] [µM] | IC50 [15] [µM] | IC50 [16] [µM] | IC50 [17] [µM] | IC50 [18] [µM] | IC50 [19] [µM] | IC50 [21] [µM] | also measured |
| --- | --- | --- | --- | --- | --- | --- | --- | --- | --- | --- | --- | --- | --- | --- | --- | --- | --- | --- | --- | --- | --- |
| CC1=C2C[C@H]3[C@@H](CC=C4C[C@@H](O)CC[C@@]43C)[C@@H]2CC[C@]12O[C@@H]1C[C@H](C)CN[C@H]1[C@H]2C [CYCLOPAMINE] | 15.9 | > 16 | > 16 | > 16 | > 16 | > 16 | > 16 | > 16 | > 16 | > 16 | > 16 | > 16 | > 16 | > 16 | > 16 | > 16 | > 16 | > 16 | > 16 | > 16 | IC50 [20]: > 16 µM; IC50 [22]: > 16 µM; IC50 [23]: > 16 µM; IC50 [24]: > 16 µM; IC50 [25]: > 16 µM; IC50 [26]: > 16 µM; IC50 [27]: > 16 µM |
| CO[C@H]1C[C@@H]2CC[C@@H](C)[C@@](O)(O2)C(=O)C(=O)N2CCCC[C@H]2C(=O)O[C@H]([C@H](C)C[C@@H]2CC[C@@H](O)[C@H](OC)C2)CC(=O)[C@H](C)/C=C(\C)[C@@H](O)[C@@H](OC)C(=O)[C@H](C)C[C@H](C)/C=C/C=C/C=C/1C [SIROLIMUS] | 0.0218 | > 0.1 | > 0.1 | < 0.000391 | 0.0842 | > 0.1 | > 0.1 | 0.0109 | > 0.1 | 0.0968 | > 0.1 | > 0.1 | > 0.1 | 0.0131 | 0.0172 | > 0.1 | > 0.1 | > 0.1 | 0.0897 | > 0.1 | IC50 [28]: > 0.1 µM; IC50 [22]: > 0.1 µM; IC50 [23]: > 0.1 µM; IC50 [24]: > 0.1 µM; IC50 [25]: > 0.1 µM; IC50 [26]: > 0.1 µM; IC50 [29]: > 0.1 µM; IC50 [27]: 0.00136 µM |
| CN1CCN(CCOc2cc(OC3CCOCC3)c3c(Nc4c(Cl)ccc5c4OCO5)ncnc3c2)CC1 [SARACATINIB] | > 2 | > 2 | > 2 | > 2 | > 2 | > 2 | > 2 | > 2 | > 2 | > 2 | > 2 | > 2 | > 2 | > 2 | > 2 | > 2 | > 2 | > 2 | > 2 | > 2 | IC50 [28]: > 2 µM; IC50 [22]: > 2 µM; IC50 [23]: > 2 µM; IC50 [24]: > 2 µM; IC50 [25]: > 2 µM; IC50 [26]: > 2 µM; IC50 [29]: > 2 µM; IC50 [27]: 0.274 µM |
